What was measured:
RAR gamma = molecular target: T1, RAR gamma (Homo sapiens, UniProt P13631); assay: SelectScreen Nuclear Profiling, agonist specificity for RAR gamma; format: cell-based
T1 sequence (P13631 1-454): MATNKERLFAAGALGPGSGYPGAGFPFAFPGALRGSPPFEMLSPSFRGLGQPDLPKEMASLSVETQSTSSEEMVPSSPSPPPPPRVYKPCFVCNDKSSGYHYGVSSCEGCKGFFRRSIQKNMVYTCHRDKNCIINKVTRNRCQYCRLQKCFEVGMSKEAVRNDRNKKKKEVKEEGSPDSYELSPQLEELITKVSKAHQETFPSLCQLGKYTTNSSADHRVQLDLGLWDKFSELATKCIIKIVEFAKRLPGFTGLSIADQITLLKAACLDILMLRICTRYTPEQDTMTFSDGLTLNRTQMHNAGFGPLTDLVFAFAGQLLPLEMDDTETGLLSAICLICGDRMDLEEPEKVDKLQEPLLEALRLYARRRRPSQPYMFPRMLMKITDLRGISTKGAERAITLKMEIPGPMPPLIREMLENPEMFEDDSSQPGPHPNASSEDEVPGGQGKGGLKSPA
Experimental: (§1) The agonist specificity of the various test compounds for each type of RaR is assessed at Life Technologies using their SelectScreen® Nuclear Profiling Services.

RAR beta = molecular target: T2, RAR beta (Homo sapiens, UniProt P10826); assay: SelectScreen Nuclear Profiling, agonist specificity for RAR beta; format: cell-based
T2 sequence (P10826 1-455): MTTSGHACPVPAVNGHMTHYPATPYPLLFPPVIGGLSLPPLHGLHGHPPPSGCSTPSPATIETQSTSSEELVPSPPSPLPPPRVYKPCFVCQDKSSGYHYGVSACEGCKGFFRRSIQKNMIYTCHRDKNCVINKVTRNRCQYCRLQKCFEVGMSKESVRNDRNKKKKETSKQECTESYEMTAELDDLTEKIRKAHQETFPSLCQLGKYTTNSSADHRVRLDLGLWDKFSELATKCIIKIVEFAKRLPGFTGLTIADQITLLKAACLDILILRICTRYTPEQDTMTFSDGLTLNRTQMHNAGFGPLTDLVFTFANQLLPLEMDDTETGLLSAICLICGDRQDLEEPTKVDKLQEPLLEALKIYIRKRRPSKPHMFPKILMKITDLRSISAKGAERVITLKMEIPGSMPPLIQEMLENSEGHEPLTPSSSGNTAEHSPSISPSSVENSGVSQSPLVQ
Experimental: as §1

RAR alpha = molecular target: T3, RAR alpha (Homo sapiens, UniProt P10276); assay: SelectScreen Nuclear Profiling, agonist specificity for RAR alpha; format: cell-based; conditions: for EC50 / RAR alpha % max: agonist specificity, SelectScreen; for RAR-a/RAR-g Selectivity % max: ratio of RAR alpha to RAR gamma % max; for RAR-a/RAR-g Selectivity EC50: ratio of RAR gamma to RAR alpha EC50
T3 sequence (P10276 1-462): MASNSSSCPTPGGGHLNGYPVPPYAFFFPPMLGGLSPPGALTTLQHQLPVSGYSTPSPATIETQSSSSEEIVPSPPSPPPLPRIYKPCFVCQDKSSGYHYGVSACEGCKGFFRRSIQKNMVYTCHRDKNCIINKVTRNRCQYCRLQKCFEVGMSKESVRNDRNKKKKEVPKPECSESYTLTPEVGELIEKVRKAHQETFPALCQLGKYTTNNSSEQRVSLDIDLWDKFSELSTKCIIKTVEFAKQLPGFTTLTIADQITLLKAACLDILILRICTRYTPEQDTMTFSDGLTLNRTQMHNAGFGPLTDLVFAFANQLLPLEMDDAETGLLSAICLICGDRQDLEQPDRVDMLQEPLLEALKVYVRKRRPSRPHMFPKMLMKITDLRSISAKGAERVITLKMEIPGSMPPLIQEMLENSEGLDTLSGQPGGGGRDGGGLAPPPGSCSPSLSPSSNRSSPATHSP
Experimental: as §1

[1] = system: AM5512 AML patient sample-derived xenograft; assay: AML patient sample-derived xenograft AM5512, % human CD45+ cells and survival
Experimental: AM5512 xenograft mice are prepared as described above.

[2] = system: AM8096 AML patient sample-derived xenograft; assay: AML patient sample-derived xenograft AM8096, % human CD45+ cells; format: in vivo, mice; conditions: 6 mg per kg daily oral, after 35 days
Experimental: (§2) Different AML patient sample (AM8096, AM5512, AM7577 and AM7440)-derived xenograft models in BALB/c nude immunocompromised mice are prepared by Crown Biosciences (Beijing, China) essentially as follows.
(§3) Approximately 2×10^6 cells from each patient sample are suspended in 100 μL PBS and injected into separate mice (n=3 for each different patient sample and for the control) by IV tail injection. For AM5512, AM7577 and AM7440 xenografts, tumor burden is considered high enough to start treatment when the concentration of human CD45^+ cells reaches ˜1-5% in the animal's peripheral blood. Human CD45^+ cells are detected in mouse blood (obtained via eye bleeds) using a fluorescence activated cell sorter and FITC anti-human CD45 (Biolegend, Cat#304037). For AM8096 xenografts, treatment is begun 40 days after injection of cells.
(§4) Human CD45^+ cell levels in peripheral blood from the treated animals and control animals are measured once a week.

[3] = system: AML cell lines (SigM5, OCI M1, MV411, HEL, Kasumi); assay: Cell viability screening of AML cell lines (ATPlite/CyQuant); format: cell-based
Experimental: On the day of the experiment, cells are homogenized using Accumax (EMD Millipore), counted, and adjusted to 40,000 cells/ml for breast cancer lines and 60,000 cells/mL for AML in appropriate growth media. Using a Biotek EL406, 50 μl of cells are distributed into white (ATPlite) or black (CyQuant) 384-well plates (Thermo). Cells are returned to 37° C. incubator to allow adhesion. After three hours, compounds are added to plates using a 20 nl 384-well pin transfer manifold on a Janus workstation. Stocks are arrayed in 10 point quadruplicate dose response in DMSO stock in 384-well compound plates. After addition of compound, plates are incubated for five or ten days in a 37° C. incubator.
Cell viability is read out using ATPlite (Perkin Elmer) or CyQuant (Life Technologies). For ATPlite, plates are removed from the incubator and brought to room temperature prior to use. Lyophilized powder of ATPlite reagent is resuspended in lysis buffer and diluted 1:2 with distilled water. 25 μL of this solution is added to each well using the Biotek liquid handler. Plates are incubated for 15 min at room temperature before the luminescence signal was read on an Envision Plate Reader (Perkin Elmer). For CyQuant, reagents are mixed as per manufacturer's instructions in PBS (Gibco). Reagent are added using a multichannel pipet and plates are replaced in incubator for 30 minutes prior to readout on an Envision Plate Reader (Perkin Elmer).
Data acquired as described is stored and grouped in Microsoft's Excel and analyzed using GraphPad Prism Software. […] Edge wells were excluded.

[4] = system: AM7577 AML patient sample-derived xenograft; assay: AML patient sample-derived xenograft AM7577, % human CD45+ cells; format: in vivo, mice; conditions: 6 mg per kg daily oral
Experimental: as §2, §3, §4

[5] = system: AM7440 AML patient sample-derived xenograft; assay: AML patient sample-derived xenograft AM7440, % human CD45+ cells; format: in vivo, mice; conditions: 6 mg per kg daily oral
Experimental: as §2, §3, §4

[6] = system: breast cancer cell lines (SKBR3, Au565, ZR75, Hcc1143); assay: Cell viability screening of breast cancer cell lines (ATPlite/CyQuant); format: cell-based; conditions: four breast cancer cell lines, 5 days of treatment, FIG. 7
Experimental: All cell lines are obtained from ATCC and cultured at 37° C. in 5% CO2. All are grown in RPMI1640 supplemented with 10 mM HEPES buffer, 2 mM L-glutamine, 50 U/mL penicillin, 50 […] and 10% fetal bovine serum (FBS, all from Invitrogen). Cells lines included AU565, SKBR3, T47D, HCC1143, MCF7, ZR-75-1, and HCC1569.
On the day of the experiment, cells are homogenized using Accumax (EMD Millipore), counted, and adjusted to 40,000 cells/ml for breast cancer lines and 60,000 cells/mL for AML in appropriate growth media. Using a Biotek EL406, 50 μl of cells are distributed into white (ATPlite) or black (CyQuant) 384-well plates (Thermo). Cells are returned to 37° C. incubator to allow adhesion. After three hours, compounds are added to plates using a 20 nl 384-well pin transfer manifold on a Janus workstation. […]
Cell viability is read out using ATPlite (Perkin Elmer) or CyQuant (Life Technologies). […] Plates are incubated for 15 min at room temperature before the luminescence signal was read on an Envision Plate Reader (Perkin Elmer). […] Reagent are added using a multichannel pipet and plates are replaced in incubator for 30 minutes prior to readout on an Envision Plate Reader (Perkin Elmer).
Data acquired as described is stored and grouped in Microsoft's Excel and analyzed using GraphPad Prism Software. […]

[7] = system: HCC1954 tumor cells xenograft; assay: HCC1954 breast cancer cell line-derived xenograft, tumor volume; format: in vivo, mice
Experimental: Breast cancer cell line (HCC1954)-derived xenograft models in BALB/c nude immunocompromised mice are prepared by Crown Biosciences (Beijing, China) essentially as follows.
Six to eight week old BALB/c nude immunocompromised mice, weighing between 18-20 g are inoculated subcutaneously at the right flank region with HCC1954 tumor cells (5×10^6) in 0.1 ml of PBS (1:1 matrigel) for tumor development. […] The final dosage in mice is 6 mg per kg per day in the high dose arm (n=10) and 3 mg per kg per day in the low dose arm (n=10) in a 10 ml/kg volume. […] Tumor volume is measured twice weekly by caliper measurement.

Row | Compound | RAR gamma % max (RAR gamma) [%] | RAR beta % max (RAR beta) [%] | EC50 (RAR alpha) [µM] | RAR alpha % max (RAR alpha) [%] | EC50 (RAR beta) [µM] | EC50 (RAR gamma) [µM] | further results
1 | CC1(C)CCC(C)(C)c2cc(C(=O)Nc3ccc(C(=O)O)cc3)ccc21 [AM580] | 87.06 | 78.24 | – | – | – | – | –
2 | COc1ccc(-c2ccc3cc(C(=O)O)ccc3c2)cc1C12CC3CC(CC(C3)C1)C2 [Adapalene] | 87.7 | 69.36 | 0.00501 | 102.2 | 0.00973 | – | –
3 | CC1(C)CC=C(C#Cc2ccccc2)c2cc(/C=C/c3ccc(C(=O)O)cc3)ccc21 [BMS493] | −13.41 | 0 | 0.0274 | −3.417 | – | 0.512 | –
4 | CC1(C)C(=O)C(C)(C)c2cc(C(=O)Nc3ccc(C(=O)O)cc3)ccc21 [BMS753] | 19.83 | 6 | 0.00143 | 122.2 | 0.701 | 0.136 | specificity for RARA over RaR-γ (RAR alpha; comparison among tested compounds): greatest specificity for RARA over RaR-γ; RAR-a/RAR-g Selectivity % max (RAR alpha): 6.1624; RAR-a/RAR-g Selectivity EC50 (RAR alpha): 94.8396
5 | CC1(C)CC=C(c2cnc3ccccc3c2)c2cc(C(=O)Nc3ccc(C(=O)O)cc3)ccc21 [BMS195614] | −14.57 | 0 | 1.34 | −31.01 | – | 0.434 | –
6 | CC1(C)CCSc2ccc(C#Cc3ccc(C(=O)O)cn3)cc21 [Tazarotenic, Tazarotenic acid] | 78.33 | 71.88 | 0.000353 | 121.4 | 0.00517 | 0.0011 | RAR-a/RAR-g Selectivity % max (RAR alpha): 1.5499; RAR-a/RAR-g Selectivity EC50 (RAR alpha): 3.1172
7 | CC1=C(/C=C/C(C)=C/C=C/C(C)=C/C(=O)O)C(C)(C)CCC1 [Tretinoin, all-trans retinoic acid] | 99.37 | 92.77 | – | 149.4 | – | – | % CD45+ cells vs vehicle control ([1]; 4 mg/kg BID, after 14 days): reduction in % CD45^+ cells; survival ([1]; 4 mg/kg BID, n=7): none of those mice survived past day 21
8 | CC1(C)CCC(C)(C)c2cc(NC(=O)c3ccc(C(=O)O)cc3)ccc21 [tamibarotene] | 106.1 | 114.9 | – | – | – | – | total % of CD45+ cells and % in blood, bone marrow and spleen vs vehicle [2]: significant reduction; responsiveness of cell line ([3]; HEL cells): non-responsive; responsiveness of cell line ([3]; MV411 cells): tamibarotene-responsive; sensitivity order of AML cell lines (viability) ([3]; SigM5, MV411, HEL, Kasumi, FIGS. 23A-B): SigM5>MV411>HEL=Kasumi; sensitivity order of AML cell lines (viability) ([3]; three AML cell lines, 5 days of treatment, FIG. 9): SigM5>OCI M1>HEL; % CD45+ cells vs vehicle control and ATRA-treated animals ([1]; 3 mg/kg BID, after 28 days): significant reduction; animals surviving the course of the experiment ([1]; 3 mg/kg BID, n=7): 5 of the 7; total % of CD45+ cells and % in blood, bone marrow and spleen vs vehicle ([1]; 6 mg per kg daily oral, after 35 days): significant reduction; % human CD45+ cells (overall, blood, bone marrow, spleen) vs vehicle [4]: no significant reduction; tumor volume (overall, blood, bone marrow, spleen) vs vehicle [5]: no significant reduction; sensitivity order of breast cancer cell lines (viability) [6]: SKBR3>Au565>ZR75>Hcc1143; tumor volume ([7]; 3 and 6 mg per kg per day, QD PO, up to 21 days): reduces tumor volume in this model in a dose-dependent manner; reduction in tumor volume, p (t-test, Welch's correction) ([7]; high dose arm, 6 mg per kg per day QD PO): 0.0048; reduction in tumor volume, p (t-test, Welch's correction) ([7]; low dose arm, 3 mg per kg per day QD PO): 0.0552

— patent US10167518B2, “Methods of stratifying patients for treatment with retinoic acid receptor-alpha agonists” (Syros Pharmaceuticals, Inc., priority 2015, dated 2019)
